The supplement of paper PMC10307832

Key:
Experiment in all cases: relative viability (nuclei count vs DMSO), 5 days (fraction); higher = more cells survive
Ponatinib + Olaparib = compound: Cc1ccc(C(=O)Nc2ccc(CN3CCN(C)CC3)c(C(F)(F)F)c2)cc1C#Cc1cnc2cccnn12 [Ponatinib] + O=C(c1cc(Cc2n[nH]c(=O)c3ccccc23)ccc1F)N1CCN(C(=O)C2CC2)CC1 [Olaparib] (partner 8 µM)
In short: (§1)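 Lung cancer cell lines in 1536-well plates got either a single drug or a fixed anchor-drug dose together with five library-drug doses (not always all listed) in √10 steps, by pin tool, on the day after seeding. Nuclei were counted after 5 days, and relative viability is the treated-to-vehicle ratio of nuclei counts. Values are medians of duplicate plates.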

Pazopanib + AZD7762 = compound: Cc1ccc(Nc2nccc(N(C)c3ccc4c(C)n(C)nc4c3)n2)cc1S(N)(=O)=O [Pazopanib] + NC(=O)Nc1cc(-c2cccc(F)c2)sc1C(=O)N[C@H]1CCCNC1 [AZD7762] (partner 0.2 µM)
In short: as §1

Ponatinib + Luminespib = compound: Cc1ccc(C(=O)Nc2ccc(CN3CCN(C)CC3)c(C(F)(F)F)c2)cc1C#Cc1cnc2cccnn12 [Ponatinib] + CCNC(=O)c1noc(-c2cc(C(C)C)c(O)cc2O)c1-c1ccc(CN2CCOCC2)cc1 [Luminespib] (partner 0.01 µM)
In short: as §1

Pazopanib + Pictilisib = compound: Cc1ccc(Nc2nccc(N(C)c3ccc4c(C)n(C)nc4c3)n2)cc1S(N)(=O)=O [Pazopanib] + CS(=O)(=O)N1CCN(Cc2cc3nc(-c4cccc5[nH]ncc45)nc(N4CCOCC4)c3s2)CC1 [Pictilisib] (partner 1 µM)
In short: as §1

Cell Line	relative viability (Ponatinib + Olaparib; first compound 0.002 µM)	relative viability (Ponatinib + Olaparib; first compound 0.006325 µM)	relative viability (Ponatinib + Olaparib; first compound 0.06325 µM)	relative viability (Ponatinib + Olaparib; first compound 0.2 µM)	relative viability (Pazopanib + AZD7762; first compound 0.01 µM)	relative viability (Pazopanib + AZD7762; first compound 0.03162 µM)	relative viability (Pazopanib + AZD7762; first compound 0.1 µM)	relative viability (Pazopanib + AZD7762; first compound 0.3162 µM)	relative viability (Pazopanib + AZD7762; first compound 1 µM)	relative viability (Ponatinib + Luminespib; first compound 0.002 µM)	relative viability (Ponatinib + Luminespib; first compound 0.006325 µM)	relative viability (Ponatinib + Luminespib; first compound 0.06325 µM)	relative viability (Ponatinib + Luminespib; first compound 0.2 µM)	relative viability (Pazopanib + Pictilisib; first compound 0.01 µM)	relative viability (Pazopanib + Pictilisib; first compound 0.03162 µM)	relative viability (Pazopanib + Pictilisib; first compound 0.1 µM)	relative viability (Pazopanib + Pictilisib; first compound 0.3162 µM)	relative viability (Pazopanib + Pictilisib; first compound 1 µM)
NCI-H838	0.758	0.771	0.795	0.669	1.04	0.911	1.04	0.909	0.946	0.324	0.324	0.298	0.3	0.382	0.476	0.497	0.564	0.589
H3255	0.573	0.534	0.602	0.554	0.897	0.906	0.847	0.883	0.913	0.862	0.887	0.805	0.929	0.452	0.454	0.427	0.417	0.582
NCI-H1395	0.446	0.425	0.47	0.433	0.36	0.366	0.389	0.38	0.387	0.644	0.601	0.829	0.637	0.534	0.746	0.685	0.661	0.674
NCI-H1437	0.598	0.595	0.654	0.623	1.05	1.13	1.19	1.03	1.03	1.18	1.09	1.25	1.09	0.343	0.449	0.441	0.499	0.626
LU99A	0.259	0.246	0.255	0.255		0.347	0.466	0.343	0.384	0.288	0.25	0.274	0.242	0.241	0.374	0.356	0.35	0.35
HCC-827	0.719	0.644	0.709	0.687	0.244	0.201	0.217	0.231	0.213	0.476	0.914	0.446	0.589	0.894	1.17	1.03	0.946	1.12
LK-2	0.584	0.759	0.661	0.435	0.283	0.411	0.398	0.451	0.354		0.185	0.181	0.158	0.508	0.724	0.729	0.558	0.496
BEN	1.06	1.18	1.13	0.92	0.592	0.75	0.607	0.775	0.786	0.259	0.296	0.24	0.576	0.514	0.621	0.515	0.567	0.488
NCI-H23	0.327	0.343	0.466	0.328	0.223	0.257	0.221	0.374	0.271		0.22	0.211	0.196	0.415	0.534	0.483	0.498	0.711
NCI-H1793	0.882	0.986	1.01	0.756		0.674	0.481	0.593	0.44	0.479	0.212	0.147	0.184		0.361	0.355	0.392	0.36
201T	0.833	0.853	0.878	0.806	0.534	0.511	0.667	0.685	0.615	1.1	1.07	1.08	0.966	0.602	0.603	0.709	0.742	0.695
NCI-H358	0.565	0.609	0.648	0.49	0.484	0.571	0.693	0.633	0.558	0.406	0.418	0.597	0.262	0.337	0.333	0.297	0.415	0.395
NCI-H727	0.609	0.742	0.587	0.627	0.618		0.609	0.663	0.562	0.321	0.444	0.516	0.261	0.356	0.244	0.497	0.393	0.483
HCC-15	0.673	0.721	0.767	0.738	1.3	1.15	1.31	1.22	1.15	0.306	0.22	0.661	0.212	0.703	0.773	0.718	0.857	1.06
ABC-1	0.893	0.776	0.776	0.693	0.797	0.757			0.804	0.558	0.42	0.745	0.239	0.635	0.839	0.82	0.799	0.86
LCLC-103H	0.754	0.743	0.838	0.694	0.576	0.805	0.897	0.792	0.822	0.928	0.974	0.908	0.733	0.531	0.575	0.635	0.764	0.588
NCI-H460	0.335	0.395	0.412	0.397	0.766	0.619	0.551	0.637	0.597	0.0243	0.0378	0.0319	0.0324	0.275	0.339	0.345	0.429	0.407
EPLC-272H	0.777	0.9	0.778	0.624		0.227	0.238	0.132	0.217	0.323	0.255	0.521	0.199	0.264	0.335	0.27	0.35	0.274
